Measured values taken from patent US10947241B2, “Phenyl phthalazine derivative, method for the preparation thereof, and pharmaceutical composition comprising the same” (Seoul National University Hospital, priority 2016, dated 2021).
Structures can show the parent of a compound that is named as a salt.

Target: hResistin (Homo sapiens (Human), UniProt Q9HD89)
Test: Evaluation of the ability to inhibit TNF-α secretion by hResistin (THP-1 cells, ELISA)
Assay type: cell-based
Details: for IC50: THP-1 human monocyte cell line, human recombinant Resistin; for inhibition at 5 µM: inhibition of TNF-α secretion by hResistin in THP-1 cells
Procedure: Experimental Example: Evaluation of the Ability to Inhibit TNF-α Secretion by hResistin
Using THP-1 (human monocyte) cell line and ELISA system, the abilities to inhibit TNF-α secretion by hResistin (IC50) were evaluated for the compounds prepared in the above examples. The compounds target hResistin, and the abilities of the compounds to inhibit TNF-α secretion by human recombinant Resistin in human monocyte (THP-1) were evaluated. The abilities to inhibit TNF-α secretion were assessed by ELISA quantifying the amount of antibody with the enzyme as a marker using an antigen-antibody reaction.
Specifically, the cultured cells were spun down at 1,500 rpm for 2 minutes, the supernatant was removed and then the cells were re-suspended in 10 mL of complete RPMI-1640 medium. After counting the number of cells using Luna™ Automated Cell Counter, cells were plated into 96-well assay plates at 50 μL per well. The cells cultured for 24 hours were treated with the test substances in accordance with the concentration for 1 hour, and then the supernatant was collected and subjected to ELISA assay. In the ELISA assay, the absorbance at 450 nm (OD450 nm) was measured using Flexstation 3. The ability of each test substance to inhibit TNF-α secretion (IC50) and its inhibition at a concentration of 5 uM are shown in Table 1 below.

Sequence of hResistin (Q9HD89 19-108): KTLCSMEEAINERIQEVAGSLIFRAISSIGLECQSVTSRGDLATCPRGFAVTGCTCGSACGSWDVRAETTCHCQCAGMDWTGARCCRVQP

Row | IC50 [µM] | inhibition at 5 µM [%] | Structure (SMILES)
1 | 1 | – | OCCN1CCN(c2nnc(-c3ccccc3)c3ccccc23)CC1 [Example 1, 2-(4-(4-phenylphthalazin-1-yl)piperazin-1-yl)ethanol]
2 | 5 | – | CC(=O)N1CCN(c2nnc(-c3ccc(C)cc3)c3ccccc23)CC1 [Example 2, 1-(4-(4-p-tolylphthalazin-1-yl)piperazin-1-yl)ethanone]
3 | 1.6 | 40.4 | OCCC1CCN(c2nnc(-c3ccc(Cl)cc3)c3ccccc23)CC1 [Example 4, 2-(1-(4-(4-chlorophenyl)phthalazin-1-yl)piperidin-4-yl)ethanol]
4 | 3.7 | – | COCCN1CCN(c2nnc(-c3ccc(Cl)cc3)c3ccccc23)CC1 [Example 9, 1-(4-chlorophenyl)-4-(4-(2-methoxyethyl)piperazin-1-yl)phthalazine]
5 | 1.2 | – | O=C(C1CC1)N1CCN(c2nnc(-c3ccc(Cl)cc3)c3ccccc23)CC1 [Example 10, (4-(4-(4-chlorophenyl)phthalazin-1-yl)piperazin-1-yl)(cyclopropyl)methanone]
6 | 2.5 | 75.8 | C[C@@H](N)C(=O)N1CCN(c2nnc(-c3ccc(Cl)cc3)c3ccccc23)CC1 [Example 36, (R)-2-amino-1-(4-(4-(4-chlorophenyl)phthalazin-1-yl)piperazin-1-yl)propan-1-one hydrochloride]
7 | – | 52.9 | O=S(=O)(C1CC1)N1CCN(c2nnc(-c3ccc(Cl)cc3)c3ccccc23)CC1 [Example 37, 1-(4-chlorophenyl)-4-(4-(cyclopropylsulfonyl)piperazin-1-yl)phthalazine]
8 | 7.9 | 69.5 | NCCN1CCN(c2nnc(-c3ccc(Cl)cc3)c3ccccc23)CC1 [Example 38, 2-(4-(4-(4-chlorophenyl)phthalazin-1-yl)piperazin-1-yl)ethanamine hydrochloride]
9 | 1.3 | 84.4 | CC(C)(N)C(=O)N1CCN(c2nnc(-c3ccc(Cl)cc3)c3ccccc23)CC1 [Example 43, 2-amino-1-(4-(4-(4-chlorophenyl)phthalazin-1-yl)piperazin-1-yl)-2-methyl propan-1-one hydrochloride]
10 | 0.3 | 97.8 | CNC1CCN(c2nnc(-c3ccc(Cl)cc3)c3ccccc23)C1 (stereo not drawn) [Example 46, 1-(4-(4-chlorophenyl)phthalazin-1-yl)-N-methylpyrrolidin-3-amine hydrochloride]
11 | 0.7 | 87.1 | CC(C)[C@H](N)C(=O)N1CCN(c2nnc(-c3ccc(Cl)cc3)c3ccccc23)CC1 [Example 47, (S)-2-amino-1-(4-(4-(4-chlorophenyl)phthalazin-1-yl)piperazin-1-yl)-3-methylbutan-1-one hydrochloride]
12 | – | 54 | Clc1ccc(-c2nnc(N3CCN(CC4CC4)CC3)c3ccccc23)cc1 [Example 50, 1-(4-chlorophenyl)-4-(4-(cyclopropylmethyl)piperazin-1-yl)phthalazine]
13 | 0.8 | 88.2 | O=C([C@H]1CCCN1)N1CCN(c2nnc(-c3ccc(Cl)cc3)c3ccccc23)CC1 [Example 51, (R)-(4-(4-(4-chlorophenyl)phthalazin-1-yl)piperazin-1-yl)(pyrrolidin-2-yl)methanone hydrochloride]
14 | – | 60.3 | O=C([C@@H]1CCCN1)N1CCN(c2nnc(-c3ccc(Cl)cc3)c3ccccc23)CC1 [Example 59, (S)-(4-(4-(4-chlorophenyl)phthalazin-1-yl)piperazin-1-yl)(pyrrolidin-2-yl)methanone hydrochloride]
15 | 1.9 | 91.2 | CC[C@H](C)[C@H](N)C(=O)N1CCN(c2nnc(-c3ccc(Cl)cc3)c3ccccc23)CC1 [Example 60, (2S,3S)-2-amino-1-(4-(4-(4-chlorophenyl)phthalazin-1-yl)piperazin-1-yl)-3-methylpentan-1-one hydrochloride]
16 | – | 2.4 | CCOC(=O)CN1CCN(c2nnc(-c3ccc(Cl)cc3)c3ccccc23)CC1 [Example 65, ethyl 2-(4-(4-(4-chlorophenyl)phthalazin-1-yl)piperazin-1-yl)acetate]
17 | – | 38.9 | Clc1ccc(-c2nnc(N3CCCN(Cc4ccccc4)CC3)c3ccccc23)cc1 [Example 67, 1-(4-benzyl-1,4-diazepan-1-yl)-4-(4-chlorophenyl)phthalazine]

The next lines start with the compound.

Row | Structure (SMILES) | IC50 [µM] | inhibition at 5 µM [%]
18 | Clc1ccc(-c2nnc(N3CCC(N4CCOCC4)CC3)c3ccccc23)cc1 [Example 8, 4-(1-(4-(4-chlorophenyl)phthalazin-1-yl)piperidin-4-yl)morpholine] | – | 54.4
19 | O=S(=O)(C1CCCC1)N1CCN(c2nnc(-c3ccc(Cl)cc3)c3ccccc23)CC1 [Example 34, 1-(4-chlorophenyl)-4-(4-(cyclopentylsulfonyl)piperazin-1-yl)phthalazine] | 3 | 64.9
20 | CC(C)(N)C(=O)N1CC=C(c2nnc(-c3ccc(Cl)cc3)c3ccccc23)CC1 [Example 44, 2-amino-1-(4-(4-(4-chlorophenyl)phthalazin-1-yl)-5,6-dihydropyridin-1(2H)-yl)-2-methylpropan-1-one hydrochloride] | – | 50.5
21 | CC(=O)NC1CCN(c2nnc(-c3ccc(Cl)cc3)c3ccccc23)C1 (stereo not drawn) [Example 45, N-(1-(4-(4-chlorophenyl)phthalazin-1-yl)pyrrolidin-3-yl)acetamide] | 1.6 | 77.6
22 | CNCCN(C)c1nnc(-c2ccc(Cl)cc2)c2ccccc12 [Example 53, N1-(4-(4-chlorophenyl)phthalazin-1-yl)-N1,N2-dimethylethane-1,2-diamine] | – | 8.7
23 | CCNC1CCN(c2nnc(-c3ccc(Cl)cc3)c3ccccc23)C1 (stereo not drawn) [Example 54, 1-(4-(4-chlorophenyl)phthalazin-1-yl)-N-ethylpyrrolidin-3-amine hydrochloride] | 1.9 | 70
24 | CNCCCN(C)c1nnc(-c2ccc(Cl)cc2)c2ccccc12 [Example 55, N1-(4-(4-chlorophenyl)phthalazin-1-yl)-N1,N3-dimethylpropane-1,3-diamine hydrochloride] | – | 13.1
25 | O=C(C1CC1)N1CCC(c2nnc(-c3ccc(Cl)cc3)c3ccccc23)CC1 [Example 56, (4-(4-(4-chlorophenyl)phthalazin-1-yl)piperidin-1-yl)(cyclopropyl)methanone] | – | 26.2
26 | CN[C@@H]1CCCN(c2nnc(-c3ccc(Cl)cc3)c3ccccc23)C1 [Example 57, (R)-1-(4-(4-chlorophenyl)phthalazin-1-yl)-N-methylpiperidin-3-amine hydrochloride] | 1 | 92.8
27 | NC1(C(=O)N2CCN(c3nnc(-c4ccc(Cl)cc4)c4ccccc34)CC2)CCCC1 [Example 58, (1-aminocyclopentyl)(4-(4-(4-chlorophenyl)phthalazin-1-yl)piperazin-1-yl)methanone hydrochloride] | 2.9 | 77.3
28 | CC(C)[C@H](N)C(=O)N1CCC(c2nnc(-c3ccc(Cl)cc3)c3ccccc23)CC1 [Example 61, (S)-2-amino-1-(4-(4-(4-chlorophenyl)phthalazin-1-yl)piperidin-1-yl)-3-methylbutan-1-one hydrochloride] | – | 21.2
29 | O=C([C@@H]1CCCN1)N1CCC(c2nnc(-c3ccc(Cl)cc3)c3ccccc23)CC1 [Example 62, (S)-(4-(4-(4-chlorophenyl)phthalazin-1-yl)piperidin-1-yl)(pyrrolidin-2-yl)methanone hydrochloride] | – | 24.8
30 | CC[C@H](C)[C@H](N)C(=O)N1CCC(c2nnc(-c3ccc(Cl)cc3)c3ccccc23)CC1 [Example 63, (2S,3S)-2-amino-1-(4-(4-(4-chlorophenyl)phthalazin-1-yl)piperidin-1-yl)-3-methylpentan-1-one hydrochloride] | – | 53.6
31 | CC(C)(N)C(=O)N1CCC(c2nnc(-c3ccc(Cl)cc3)c3ccccc23)CC1 [Example 64, 2-amino-1-(4-(4-(4-chlorophenyl)phthalazin-1-yl)piperidin-1-yl)-2-methylpropan-1-one hydrochloride] | – | 23.9
32 | CC(C)[C@H](N)C(=O)N1CCN(c2nnc(-c3ccc(Cl)cc3)c3ccccc23)CC1(C)C [Example 69, (S)-2-amino-1-(4-(4-(4-chlorophenyl)phthalazin-1-yl)-2,2-dimethylpiperazin-1-yl)-3-methylbutan-1-one hydrochloride] | – | 16.1
33 | C[C@@H]1CN(c2nnc(-c3ccc(Cl)cc3)c3ccccc23)CCN1C(=O)C(C)(C)N [Example 70, (R)-2-amino-1-(4-(4-(4-chlorophenyl)phthalazin-1-yl)-2-methylpiperazin-1-yl)-2-methylpropan-1-one hydrochloride] | – | 61.4
34 | CC(C)[C@H](N)C(=O)N1CCN(c2nnc(-c3ccc(Cl)cc3)c3ccccc23)C[C@H]1C [Example 71, (S)-2-amino-1-((R)-4-(4-(4-chlorophenyl)phthalazin-1-yl)-2-methylpiperazin-1-yl)-3-methylbutan-1-one hydrochloride] | – | 42.2
35 | C[C@H]1CN(c2nnc(-c3ccc(Cl)cc3)c3ccccc23)CCN1C(=O)C(C)(C)N [Example 72, (S)-2-amino-1-(4-(4-(4-chlorophenyl)phthalazin-1-yl)-2-methylpiperazin-1-yl)-2-methylpropan-1-one hydrochloride] | – | 72.2
